Common to all, as to assay type: cell-based
One test addresses T1, human TLR7 (Homo sapiens, UniProt Q9NYK1).
T1 construct: host or cells: HEK-Blue cells
T1 sequence (Q9NYK1 27-1049): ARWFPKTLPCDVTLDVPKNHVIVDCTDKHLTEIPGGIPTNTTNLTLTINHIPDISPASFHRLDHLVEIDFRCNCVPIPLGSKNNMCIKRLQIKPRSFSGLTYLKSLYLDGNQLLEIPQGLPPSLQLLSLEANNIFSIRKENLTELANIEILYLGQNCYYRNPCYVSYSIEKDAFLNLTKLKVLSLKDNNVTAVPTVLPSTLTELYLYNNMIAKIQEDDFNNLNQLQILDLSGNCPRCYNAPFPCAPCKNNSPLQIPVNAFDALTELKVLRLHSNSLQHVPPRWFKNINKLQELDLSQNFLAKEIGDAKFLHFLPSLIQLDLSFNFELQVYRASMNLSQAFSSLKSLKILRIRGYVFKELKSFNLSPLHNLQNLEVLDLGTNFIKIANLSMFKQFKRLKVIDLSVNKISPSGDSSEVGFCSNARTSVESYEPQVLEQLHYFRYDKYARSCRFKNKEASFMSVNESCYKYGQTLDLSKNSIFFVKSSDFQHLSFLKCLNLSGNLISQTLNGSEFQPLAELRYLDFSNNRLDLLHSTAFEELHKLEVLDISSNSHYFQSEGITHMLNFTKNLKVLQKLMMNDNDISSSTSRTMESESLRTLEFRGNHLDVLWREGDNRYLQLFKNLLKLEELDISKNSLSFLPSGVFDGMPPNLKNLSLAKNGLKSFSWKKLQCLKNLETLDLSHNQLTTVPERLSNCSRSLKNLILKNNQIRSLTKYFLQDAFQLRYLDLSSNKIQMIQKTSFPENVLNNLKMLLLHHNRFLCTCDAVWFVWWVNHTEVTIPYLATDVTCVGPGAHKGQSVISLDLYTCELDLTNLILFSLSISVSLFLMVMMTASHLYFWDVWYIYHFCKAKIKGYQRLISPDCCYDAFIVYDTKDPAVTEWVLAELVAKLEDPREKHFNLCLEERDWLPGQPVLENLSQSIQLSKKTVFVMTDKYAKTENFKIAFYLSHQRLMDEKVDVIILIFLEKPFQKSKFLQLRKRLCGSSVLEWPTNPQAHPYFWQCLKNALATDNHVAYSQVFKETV
Put plainly: TLR7 inhibition reporter assay (HEK-Blue SEAP reporter). The conditions noted are these: HEK-Blue cells overexpressing human TLR7; gardiquimod 7.5 μM; 22 hour incubation. In outline: (§1)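 Dose–response from 0.05 nM to 50 μM was run in HEK-Blue human TLR7, TLR8 and TLR9 reporter cells. After 30 min at room temperature with compound, ligand was added (TLR7 gardiquimod 7.5 μM; TLR8 R848 15.9 μM; TLR9 ODN2006 5 nM) and SEAP measured next day, at 22 h.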
(In a reporter assay the amount or activity of a reporter protein is the signal.)

The next test concerns the target T2, human TLR9 (Homo sapiens, UniProt Q9NR96).
T2 construct: host or cells: HEK-Blue cells
T2 sequence (Q9NR96 26-1032): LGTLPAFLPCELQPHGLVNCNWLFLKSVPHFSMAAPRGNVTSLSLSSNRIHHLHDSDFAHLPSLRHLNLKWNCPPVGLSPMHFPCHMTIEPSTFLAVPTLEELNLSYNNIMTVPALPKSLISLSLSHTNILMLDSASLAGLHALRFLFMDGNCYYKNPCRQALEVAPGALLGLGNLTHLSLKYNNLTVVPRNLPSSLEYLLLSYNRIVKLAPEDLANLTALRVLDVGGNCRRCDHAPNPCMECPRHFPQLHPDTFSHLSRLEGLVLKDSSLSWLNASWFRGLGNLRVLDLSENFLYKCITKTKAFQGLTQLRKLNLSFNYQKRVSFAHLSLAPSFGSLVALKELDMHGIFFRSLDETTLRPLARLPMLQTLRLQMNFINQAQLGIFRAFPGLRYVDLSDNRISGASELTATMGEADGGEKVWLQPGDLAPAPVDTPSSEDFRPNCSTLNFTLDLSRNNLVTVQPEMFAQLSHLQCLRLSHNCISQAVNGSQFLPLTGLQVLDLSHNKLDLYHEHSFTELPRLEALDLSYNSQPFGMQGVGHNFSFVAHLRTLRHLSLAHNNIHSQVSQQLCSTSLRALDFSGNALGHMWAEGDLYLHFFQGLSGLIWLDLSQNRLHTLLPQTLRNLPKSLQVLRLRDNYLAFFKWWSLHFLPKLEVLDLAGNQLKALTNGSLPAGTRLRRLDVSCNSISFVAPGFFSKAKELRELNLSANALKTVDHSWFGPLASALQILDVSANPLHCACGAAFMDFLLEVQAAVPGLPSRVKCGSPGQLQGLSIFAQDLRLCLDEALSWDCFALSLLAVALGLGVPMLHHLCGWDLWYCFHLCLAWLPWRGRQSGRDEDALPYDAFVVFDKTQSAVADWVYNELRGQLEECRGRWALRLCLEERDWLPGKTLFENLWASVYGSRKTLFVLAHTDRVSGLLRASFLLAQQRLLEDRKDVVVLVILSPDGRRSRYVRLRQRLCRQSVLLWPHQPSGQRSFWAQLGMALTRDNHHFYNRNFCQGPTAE
Put plainly: TLR9 inhibition reporter assay (HEK-Blue SEAP reporter). The following applies: HEK-Blue cells overexpressing human TLR9; ODN2006 5 nM; 22 hour incubation. An outline of the steps:
as §1

For another test, the target named is T3, human TLR8 (Homo sapiens, UniProt Q9NR97).
T3 construct: host or cells: HEK-Blue cells
T3 sequence (Q9NR97 27-1041): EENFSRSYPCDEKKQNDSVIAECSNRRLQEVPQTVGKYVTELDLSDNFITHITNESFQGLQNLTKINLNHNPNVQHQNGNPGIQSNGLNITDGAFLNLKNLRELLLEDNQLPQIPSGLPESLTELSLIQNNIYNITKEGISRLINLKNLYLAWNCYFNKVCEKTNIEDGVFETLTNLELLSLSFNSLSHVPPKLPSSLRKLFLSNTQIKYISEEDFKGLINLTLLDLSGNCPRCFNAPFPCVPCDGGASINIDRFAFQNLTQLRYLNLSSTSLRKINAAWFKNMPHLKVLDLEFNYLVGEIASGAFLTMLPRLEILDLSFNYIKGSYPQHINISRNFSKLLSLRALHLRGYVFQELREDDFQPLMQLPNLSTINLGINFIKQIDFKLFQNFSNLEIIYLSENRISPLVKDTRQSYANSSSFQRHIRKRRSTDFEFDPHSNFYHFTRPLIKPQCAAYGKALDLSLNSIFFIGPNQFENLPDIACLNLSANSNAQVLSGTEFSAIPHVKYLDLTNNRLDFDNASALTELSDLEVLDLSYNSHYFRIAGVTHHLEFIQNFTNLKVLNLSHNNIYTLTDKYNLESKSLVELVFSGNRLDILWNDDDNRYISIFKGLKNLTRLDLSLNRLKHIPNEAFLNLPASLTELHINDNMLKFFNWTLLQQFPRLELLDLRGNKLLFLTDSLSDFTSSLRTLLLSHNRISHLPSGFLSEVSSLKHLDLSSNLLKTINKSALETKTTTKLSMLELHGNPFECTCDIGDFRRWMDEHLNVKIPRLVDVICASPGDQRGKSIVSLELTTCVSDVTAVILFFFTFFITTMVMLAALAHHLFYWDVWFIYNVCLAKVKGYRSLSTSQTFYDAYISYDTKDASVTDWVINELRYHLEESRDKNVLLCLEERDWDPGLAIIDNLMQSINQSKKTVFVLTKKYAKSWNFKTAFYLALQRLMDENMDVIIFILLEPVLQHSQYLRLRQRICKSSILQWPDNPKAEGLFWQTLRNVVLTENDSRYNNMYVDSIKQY
Put plainly: TLR8 inhibition reporter assay (HEK-Blue SEAP reporter). The following applies: HEK-Blue cells overexpressing human TLR8; R848 15.9 μM; 22 hour incubation. How it is done: TLR7/8/9 Inhibition Reporter Assays
HEK-Blue™-cells (Invivogen) overexpressing human TLR7, TLR8 or TLR9 receptors were used for screening inhibitors of these receptors using an inducible SEAP (secreted embryonic alkaline phosphatase) reporter gene under the control of the IFN-β minimal promoter fused to five NF-κB and AP-1-binding sites. Briefly, cells are seeded into Greiner 384 well plates (15000 cells per well for TLR7, 20,000 for TLR8 and 25,000 for TLR9) and then treated with test compounds in DMSO to yield a final dose response concentration range of 0.05 nM-50 μM. After a 30 minute compound pre-treatment at room temperature, the cells are then stimulated with a TLR7 ligand (gardiquimod at a final concentration of 7.5 μM), TLR8 ligand (R848 at a final concentration of 15.9 μM) or TLR9 ligand (ODN2006 at a final concentration of 5 nM) to activate NF-κB and AP-1 which induce the production of SEAP. After a 22 hour incubation at 37° C., 5% CO2, SEAP levels are determined with the addition of HEK-Blue™ Detection reagent (Invivogen), a cell culture medium that allows for detection of SEAP, according to manufacturer's specifications. The percent inhibition is determined as the % reduction in the HEK-Blue signal present in wells treated with agonist plus DMSO alone compared to wells treated with a known inhibitor.

This is an account of results in US11306092B2, “Amino indole compounds useful as TLR inhibitors” (BRISTOL-MYERS SQUIBB COMPANY, priority 2017, dated 2022).

The structures appear in SMILES notation.

The IC50 is the concentration at which inhibition is half-maximal. A high value points to weaker potency.

Regarding `Cc1cc(-c2[nH]c3ccc(N4CCC(N5CCN(C(C)C)CC5)C4=O)cc3c2C(C)C)cc(C)n1` (single isomer, unassigned) [Example 5, 1-(2-(2,6-dimethylpyridin-4-yl)-3-isopropyl-1H-indol-5-yl)-3-(4-isopropylpiperazin-1-yl) pyrrolidin-2-one], the results for the IC50 against human TLR7, on human TLR9 and on human TLR8 were 6.4 nM, 597 nM and 5.8 nM, respectively.
In the case of `Cc1cc(-c2[nH]c3ccc(N4CCC(N5CCN(C(C)C)CC5)C4=O)cc3c2C(C)C)cc(C)n1` (single isomer, unassigned) [Example 6, 1-(2-(2,6-dimethylpyridin-4-yl)-3-isopropyl-1H-indol-5-yl)-3-(4-isopropylpiperazin-1-yl) pyrrolidin-2-one], the IC50 on human TLR7 worked out at 3.9 nM; against human TLR9 it was 1020 nM; against human TLR8, 4.9 nM.
Regarding `CNCCNC1CCC(Nc2ccc3[nH]c(-c4ccc(OC)c(OC)c4)c(C(C)C)c3c2)CC1` (single isomer, unassigned) [Example 30, N1-(2-(3,4-dimethoxyphenyl)-3-isopropyl-1H-indol-5-yl)-N4-(2-(methylamino)ethyl)cyclohexane-1,4-diamine], the IC50 worked out at 434 nM against human TLR7, 281 nM against human TLR9 and 234 nM against human TLR8.
For `COc1ccc(-c2[nH]c3ccc(NC4CCC(NC5CCN(C)CC5)CC4)cc3c2C(C)C)cc1OC` (single isomer, unassigned) [Example 40, N1-(2-(3,4-dimethoxyphenyl)-3-isopropyl-1H-indol-5-yl)-N4-(1-methylpiperidin-4-yl)cyclohexane-1,4-diamine] the same measures were 43 nM, 570 nM and 171 nM.
For the molecule `CNCCNC1CCN(c2ccc3[nH]c(-c4ccnc(C)c4)c(C(C)C)c3c2)C1=O` (stereo not shown) [Example 1, 1-(3-isopropyl-2-(2-methylpyridin-4-yl)-1H-indol-5-yl)-3-((2-(methylamino)ethyl)amino)pyrrolidin-2-one], the IC50 came out at 189 nM on human TLR7, 488 nM against human TLR9 and 16 nM against human TLR8.
Taken in the same sequence, the figures for `Cc1cc(-c2[nH]c3ccc(N4CCC(N(C)CCN)C4=O)cc3c2C(C)C)ccn1` (stereo not shown) [Example 2, 3-((2-aminoethyl)(methyl)amino)-1-(3-isopropyl-2-(2-methylpyridin-4-yl)-1H-indol-5-yl)pyrrolidin-2-one] were 99 nM, 4970 nM and 28 nM.
Taken in the same sequence, the figures for `COc1ccc(-c2[nH]c3ccc(N4CCC(N(C)C)C4=O)cc3c2C(C)C)cc1OC` (stereo not shown) [Example 3, 1-(2-(3,4-dimethoxyphenyl)-3-isopropyl-1H-indol-5-yl)-3-(dimethylamino)pyrrolidin-2-one] were 44 nM, 10800 nM and 31 nM.
With `COc1ccc(-c2[nH]c3ccc(N4CCC(N(C)C)C4=O)cc3c2C(C)C)cc1OC` (stereo not shown) [Example 4, 1-(2-(3,4-dimethoxyphenyl)-3-isopropyl-1H-indol-5-yl)-3-(dimethylamino)pyrrolidin-2-one], the IC50 is 67 nM against human TLR7, 9210 nM against human TLR9 and 81 nM on human TLR8.
For `Cc1cc(-c2[nH]c3ccc(N4CCC(OCCN(C)C)C4=O)cc3c2C(C)C)ccn1` (stereo not shown) [Example 7, 3-(2-(dimethylamino)ethoxy)-1-(3-isopropyl-2-(2-methylpyridin-4-yl)-1H-indol-5-yl)pyrrolidin-2-one] the same measures were 1590 nM, 17300 nM and 603 nM.
As for `COc1ccc(-c2[nH]c3ccc(NC(=O)[C@@H](N)CC(N)=O)cc3c2C(C)C)cc1OC` [Example 18, (S)-2-amino-N1-(2-(3,4-dimethoxyphenyl)-3-isopropyl-1H-indol-5-yl)succinamide], the IC50 against human TLR7 turned out to be 280 nM; at human TLR8, 89 nM.
Take `COc1ccc(-c2[nH]c3ccc(NC(=O)[C@H](N)CC(N)=O)cc3c2C(C)C)cc1OC` [Example 19, (R)-2-amino-N1-(2-(3,4-dimethoxyphenyl)-3-isopropyl-1H-indol-5-yl)succinamide]: the IC50 against human TLR7 is 441 nM; at human TLR8 it was 97 nM.
